Laboratory results taken from patent US10294202B2, “Pyrrolidinones as herbicides” (FMC Corporation, priority 2013, dated 2019).

Legend:
barnyardgrass = assay: Test A pre-/postemergence herbicide test; format: in vivo, Echinochloa crus-galli
Method in brief: (§1)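 Approximately 10 days after treatment in the greenhouse, plants were compared with untreated controls and given a 0–100 visual injury rating. Applications: preemergence directed soil spray; postemergence on 2–10 cm plants at the one- to two-leaf stage.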

kochia = assay: Test A pre-/postemergence herbicide test; format: in vivo, Kochia scoparia; conditions: for Plant response rating, Kochia: 0 to 100 scale
From the text: (§2) Seeds of plant species selected from bamyardgrass (Echinochloa crus-galli), kochia (Kochia scoparia), ragweed (common ragweed, Ambrosia elatior), ryegrass, Italian (Italian ryegrass, Lolium multiflorum), crabgrass, large (large crabgrass Digitaria sanguinalis), giant foxtail (Setaria faberii), morningglory (Ipomoea spp.), pigweed (Amaranthus retroflexus), velvetleaf (Abutilon theophrasti), wheat (Triticum aestivum), and corn (Zea mays) were planted into a blend of loam soil and sand and treated preemergence with a directed soil spray using test chemicals formulated in a non-phytotoxic solvent mixture which included a surfactant. At the same time, plants selected from these crop and weed species and also blackgrass (Alopecurus myosuroides), and galium (catchweed bedstraw, Galium aparine) were planted in pots containing the same blend of loam soil and sand and treated with postemergence applications of test chemicals formulated in the same manner. Plants ranged in height from 2 to 10 cm and were in the one- to two-leaf stage for the postemergence treatment. Treated plants and untreated controls were maintained in a greenhouse for approximately 10 days, after which time all treated plants were compared to untreated controls and visually evaluated for injury. Plant response ratings, summarized in Table A, are based on a 0 to 100 scale where 0 is no effect and 100 is complete control. A dash (-) response means no test result.

ragweed = assay: Test A pre-/postemergence herbicide test; format: in vivo, Ambrosia elatior; conditions: for Plant response rating, Ragweed: 0 to 100 scale
From the text: as §2

ryegrass, Italian = assay: Test A pre-/postemergence herbicide test; format: in vivo, Lolium multiflorum; conditions: for Plant response rating, Ryegrass, Italian: 0 to 100 scale
From the text: as §2

giant foxtail = assay: Test A pre-/postemergence herbicide test; format: in vivo, Setaria faberii; conditions: for Plant response rating, Foxtail, Giant: 0 to 100 scale
Method in brief: as §1

pigweed = assay: Test A pre-/postemergence herbicide test; format: in vivo, Amaranthus retroflexus; conditions: for Plant response rating, Pigweed: 0 to 100 scale
Method in brief: as §1

wheat = assay: Test A pre-/postemergence herbicide test; format: in vivo, Triticum aestivum; conditions: Postemergence; for Plant response rating, Wheat: 125 g ai/ha, 0 to 100 scale; for Wheat plant response rating (0 to 100 scale, 0 is no effect, 100 is complete control): 500 g ai/ha
Method in brief: as §1

corn = assay: Test A pre-/postemergence herbicide test; format: in vivo, Zea mays; conditions: Postemergence; for Plant response rating, Corn: 125 g ai/ha, 0 to 100 scale; for Corn plant response rating (0 to 100 scale, 0 is no effect, 100 is complete control): 500 g ai/ha
Method in brief: as §1

blackgrass = assay: Test A postemergence herbicide test; format: in vivo, Alopecurus myosuroides; conditions: for Plant response rating, Blackgrass: 125 g ai/ha, 0 to 100 scale; for Blackgrass plant response rating (0 to 100 scale, 0 is no effect, 100 is complete control): 500 g ai/ha
From the text: (§3) At the same time, plants selected from these crop and weed species and also blackgrass (Alopecurus myosuroides), and galium (catchweed bedstraw, Galium aparine) were planted in pots containing the same blend of loam soil and sand and treated with postemergence applications of test chemicals formulated in the same manner. Plants ranged in height from 2 to 10 cm and were in the one- to two-leaf stage for the postemergence treatment. Treated plants and untreated controls were maintained in a greenhouse for approximately 10 days, after which time all treated plants were compared to untreated controls and visually evaluated for injury. Plant response ratings, summarized in Table A, are based on a 0 to 100 scale where 0 is no effect and 100 is complete control. A dash (-) response means no test result.

galium = assay: Test A postemergence herbicide test; format: in vivo, Galium aparine; conditions: for Plant response rating, Galium: 125 g ai/ha, 0 to 100 scale; for Galium plant response rating (0 to 100 scale, 0 is no effect, 100 is complete control): 500 g ai/ha
From the text: as §3

[1] = 125 g ai/ha, visual rating, 0 to 100 scale, 0 no effect, 100 complete control, approximately 10 days, preemergence
[2] = preemergence, 500 g ai/ha, 0 to 100 scale (0 no effect, 100 complete control)
[3] = 125 g ai/ha, visual rating, 0 no effect, 100 complete control, approximately 10 days, preemergence
[4] = Postemergence, 125 g ai/ha, 0 no effect, 100 complete control
[5] = 0 no effect, 100 complete control
[6] = Postemergence, 125 g ai/ha, 0 to 100 scale, 0 is no effect, 100 is complete control
[7] = Postemergence, 125 g ai/ha, 0 is no effect, 100 is complete control
[8] = preemergence, 500 g ai/ha, 0 is no effect and 100 is complete control
[9] = 0 is no effect, 100 is complete control

Row | Compound | Plant response rating, Barnyardgrass (barnyardgrass; [1]) | Barnyardgrass plant response rating (0 to 100 scale, 0 is no effect, 100 is complete control) (barnyardgrass; Postemergence, 500 g ai/ha) | Plant response rating, Barnyardgrass (barnyardgrass; [2]) | Plant response rating, Kochia (kochia; [3]) | Kochia plant response rating (0 to 100 scale, 0 is no effect, 100 is complete control) (kochia; Postemergence, 500 g ai/ha) | Plant response rating, Ragweed (ragweed; [3]) | Ragweed plant response rating (0 to 100 scale, 0 is no effect, 100 is complete control) (ragweed; Postemergence, 500 g ai/ha) | Plant response rating, Ryegrass, Italian (ryegrass, Italian; [3]) | Ryegrass, Italian plant response rating (0 to 100 scale, 0 is no effect, 100 is complete control) (ryegrass, Italian; Postemergence, 500 g ai/ha) | Plant response rating, Foxtail, Giant (giant foxtail; [3]) | Foxtail, Giant plant response rating (0 to 100 scale, 0 is no effect, 100 is complete control) (giant foxtail; Postemergence, 500 g ai/ha) | Plant response rating, Foxtail, Giant (giant foxtail; preemergence, 500 g ai/ha) | Plant response rating, Pigweed (pigweed; [3]) | Pigweed plant response rating (0 to 100 scale, 0 is no effect, 100 is complete control) (pigweed; Postemergence, 500 g ai/ha) | Wheat plant response rating (0 to 100 scale, 0 is no effect, 100 is complete control) (wheat) | Corn plant response rating (0 to 100 scale, 0 is no effect, 100 is complete control) (corn) | Blackgrass plant response rating (0 to 100 scale, 0 is no effect, 100 is complete control) (blackgrass) | Galium plant response rating (0 to 100 scale, 0 is no effect, 100 is complete control) (galium) | Plant response rating, Barnyardgrass (barnyardgrass; [6]) | Plant response rating, Kochia (kochia; [7]) | also measured
1 | Cc1ccc(C2CNC(=O)C2C(=O)Nc2ccc(F)cc2F)cc1F (racemic) [Compound 145] | 80 | 90 | 90 | 0 | 20 | 0 | 20 | 0 | 0 | 70 | 70 | 90 | 0 | 0 | 0 | 0 | 30 | 50 | – | – | Plant response rating, Barnyardgrass (barnyardgrass; Postemergence, 125 g ai/ha, 0 to 100 scale, 0 no effect, 100 complete control): 70; Plant response rating, Kochia (kochia; [4]): 0; Plant response rating, Kochia (kochia; preemergence, 500 g ai/ha): 0; Plant response rating, Ragweed (ragweed; [4]): 0; Plant response rating, Ragweed (ragweed; preemergence, 500 g ai/ha): 0; Plant response rating, Ryegrass, Italian (ryegrass, Italian; [4]): 0; Plant response rating, Ryegrass, Italian (ryegrass, Italian; preemergence, 500 g ai/ha): 0; Plant response rating, Foxtail, Giant (giant foxtail; [4]): 40; Plant response rating, Pigweed (pigweed; [4]): 0; Plant response rating, Pigweed (pigweed; preemergence, 500 g ai/ha): 0; Plant response rating, Wheat (wheat; [5]): 0; Plant response rating, Corn (corn; [5]): 0; Plant response rating, Blackgrass (blackgrass; [5]): 0; Plant response rating, Galium (galium; [5]): 20
2 | O=C1NCC(c2cc(F)cc(F)c2)C1C(=O)Nc1ccc(F)cc1F (racemic) [Compound 156] | 90 | 80 | 90 | 20 | 20 | 0 | 30 | 0 | 30 | 90 | 80 | 90 | 0 | 20 | 40 | 30 | 20 | 30 | 80 | 0 | Plant response rating, Kochia (kochia; [8]): 40; Plant response rating, Ragweed (ragweed; [7]): 0; Plant response rating, Ragweed (ragweed; [8]): 0; Plant response rating, Ryegrass, Italian (ryegrass, Italian; [7]): 20; Plant response rating, Ryegrass, Italian (ryegrass, Italian; [8]): 30; Plant response rating, Foxtail, Giant (giant foxtail; [7]): 80; Plant response rating, Pigweed (pigweed; [7]): 0; Plant response rating, Pigweed (pigweed; [8]): 0; Plant response rating, Wheat (wheat; [9]): 0; Plant response rating, Corn (corn; [9]): 20; Plant response rating, Blackgrass (blackgrass; [9]): 0; Plant response rating, Galium (galium; [9]): 20
3 | Cc1cccc(NC(=O)C2C(=O)NCC2c2cccc(C(F)(F)F)c2)c1F (racemic) [Compound 184] | 70 | 80 | – | 0 | 0 | 0 | 0 | 0 | 20 | 90 | 80 | – | 0 | 0 | 40 | 20 | 20 | 20 | 70 | 0 | Plant response rating, Barnyardgrass (barnyardgrass; preemergence, 500 g ai/ha, 0 to 100 scale, 0 is no effect and 100 is complete control): 90; Plant response rating, Kochia (kochia; [8]): 20; Plant response rating, Ragweed (ragweed; [7]): 0; Plant response rating, Ragweed (ragweed; [8]): 0; Plant response rating, Ryegrass, Italian (ryegrass, Italian; [7]): 0; Plant response rating, Ryegrass, Italian (ryegrass, Italian; [8]): 0; Plant response rating, Foxtail, Giant (giant foxtail; [7]): 70; Plant response rating, Foxtail, Giant (giant foxtail; [8]): 90; Plant response rating, Pigweed (pigweed; [7]): 0; Plant response rating, Pigweed (pigweed; [8]): 0; Plant response rating, Wheat (wheat; [9]): 0; Plant response rating, Corn (corn; [9]): 0; Plant response rating, Blackgrass (blackgrass; [9]): 0; Plant response rating, Galium (galium; [9]): 0
